Test results published in US20100004156A1, “Small Compounds That Correct Protein Misfolding and Uses Thereof” (priority 2005, published 2010).
Where a SMILES comes first, the peptide text is derived from it. The star is where a group is joined. Cbz = O=C(OCc1ccccc1)*

How the values were obtained:
mutant P23H opsin = experiment: Recovery of correctly folded P23H rhodopsin from tetracycline-inducible HEK293 cells (immunoaffinity purification, absorbance at 500 nm); assay type: cell-based; settings: for recovery of folded rhodopsins: in the presence of 11-cis-retinal, statement covers the rhodopsins of Table 1 (P23H and WT)
Method: (§1) Mutant P23H and wild-type opsins were expressed separately in tetracycline-inducible stable HEK293 cell lines in the presence of 11-cis retinal and various inhibitors. At forty-eight hours, the folded proteins were immununoaffinity purified and quantitated by UV-visible spectroscopy. The total amount of opsin protein was assayed at 280 nm. The amount of rhodopsin present in a biochemically functional conformation was assayed at 500 nm. Immunofluorescence microscopy was also performed to determine the cellular location of the proteins.
(§2) Stable wild-type and P23H opsin expressing HEK293 cell lines were generated in the Flp-In T-Rex system (Invitrogen). The BEK293 cells were grown in DMEM high glucose media supplemented with 10% fetal bovine serum, antibiotic-antimycotic solution, 5 μg/ml blasticidin and hygromycin at 37° C. in the presence of 8% CO2.
(§3) The opsin expressing HEK293 cell lines were allowed to reach confluence and were induced with 1 μg/ml tetracycline after a change of media. 10 μM 11-cis retinal was immediately added after induction under a red light, and inhibitors were added concurrently at the concentrations shown in Table 2 (below).
The plates were incubated for forty-eight hours. 10 uM of retinal was provided twenty-four hours after the first application, under red light.
Forty-eight hours after induction and inhibitor administration the HEK293 cells were harvested and rhodopsin was purified essentially as described in Noorwez et. al. (J Biol. Chem. 2004 Apr. 16; 279(16):16278-84). Spectrophotometric scans were taken in a Varian Cary 50 spectrophotometer.

wild-type opsin = experiment: Recovery of wild-type rhodopsin from tetracycline-inducible HEK293 cells (immunoaffinity purification, absorbance at 500 nm); assay type: cell-based; settings: 11-cis-retinal alone added to media of cells expressing wild-type opsin
Method: as §1, §2, §3
The plates were incubated for forty-eight hours. 10 uM of retinal was provided twenty-four hours after the first application, under red light. […]

P23H opsin = settings: previous studies, Noorwez et al. J Biol Chem 2003; cited from earlier work

Compound	in vivo folding and stabilization of P23H opsin (P23H opsin)	recovery of folded rhodopsins (mutant P23H opsin)	other results
CC1=C(/C=C/C(C)=C/C=C/C(C)=C/C=O)C(C)(C)CCC1 [11-cis-retinal]	promotes the in vivo folding and stabilization		increase in rhodopsin yield (mutant P23H opsin; 11-cis-retinal alone added to culture medium of cells expressing the P23H mutant): 5-6 fold; effect on rhodopsin yield (wild-type opsin): no effect
7-ring locked isomer of 11-cis-retinal	promotes the in vivo folding and stabilization		
CC(C)C[C@@H](C=O)NC(=O)[C@H](CC(C)C)NC(=O)[C@H](CC(C)C)NC(=O)OCc1ccccc1 [MG132, N-carbobenzoyl-Leu-Leu-Leu-CHO] (Cbz-Leu-Leu-Leu-aldehyde)		increased the recovery	
CC1=C(/C=C/C(C)=C\C=C\C(C)=C\C=O)C(C)(C)CCC1 [9-cis-1-retinal]	promotes the in vivo folding and stabilization		
Cn1cnc(N)c2ncnc1-2 [3-methyladenine]		increased the recovery	
Cl.N [Ammonium chloride]		increased the recovery	
C[C@H]1CCC/C=C/[C@@H]2C[C@H](O)C[C@H]2[C@H](O)/C=C/C(=O)O1 [Brefeldin A]		increased the recovery	increase in the yield of P23H rhodopsin (mutant P23H opsin; HEK293 cells, inhibitor added at induction with 11-cis-retinal, FIG. 4A): 2 fold
O[C@H]1[C@H](O)[C@@H](O)CN2CC[C@H](O)[C@H]12 [Castanospermine]		increased the recovery	
